From patent EP1319663A1, “Antidepressant folic -, folinic- and glutamic-acid lithium salts” (Dospharma S.A., priority 2001, dated 2003) come the findings set out here.

A short description of data set [1]: Solubility of the lithium salts. Format: physicochemical. The conditions noted are these: solvents as named in the value.
The test system of data set [2] is rats rendus dépressifs. The data set can be described thus: Despair test in rat (first depression model). Format: in vivo. The following applies: dose de 10 mg; per os, twice daily, eight days. An excerpt: (§1) L'activité antidépressive du mélange folate de lithium - glutamate de lithium a été étudiée sur deux modèles de rats rendus dépressifs. On a utilisé comme molécule de référence, la desméthylimipramine (DMI) et comme produit de comparaison un mélange de carbonate de lithium, d'acide folique et d'acide glutamique dans les mêmes proportions que l'association selon l'invention. Les traitements ont été poursuivis per os avec administration biquotidienne durant huit jours.
Le premier modèle utilisé est le test du désespoir chez le rat (Despair Test). Les rats sont placés pour ce test dans une cuve d'eau tiédie à 27°C sans possibilité de s'échapper. Après une nage de quelques minutes, les animaux s'immobilisent et le temps moyen d'immobilité est chronométré. Il correspond à la phase de dépression. La DMI (antidépresseur de référence) à la dose de 10 mg diminue de 50 % ce temps d'immobilisation. Une courbe effet-dose a été établie avec l'association folate de lithium-glutamate de lithium. Un effet est observé dès la dose de 1 mg/kg. Il est maximum avec une dose de 20 mg/kg. A titre de comparaison, le lithium administré, sous forme de carbonate de lithium avec un mélange d'acide folique et d'acide glutamique, est moins actif sur ce modèle. On constate une potentialisation des effets du lithium lorsqu'il est administré sous forme de folate de lithium et de glutamate de lithium.

The test system of data set [3] is rats rendus dépressifs. Description: Modified one-way avoidance test in rat (second depression model). The conditions noted are these: dose de 1 mg/kg; per os, twice daily, eight days. Format: in vivo.
From the text: as §1
Le second test pratiqué est un test à voie unique (one-way)modifié. Dans un premier temps on apprend aux rats à passer d'un compartiment à un autre pour éviter un choc électrique. Les rats sélectionnés qui donnent systématiquement la réponse d'évitement sont placés dans un système à quatre compartiments avec retour au premier compartiment. Les animaux apprennent à éviter le choc électrique en passant du compartiment I à II, puis II à III et […]. Le passage de IV vers I pose un problème puisque les rats reconnaissent (ou sentent) le point de départ.
Les rats s'immobilisent en position de « freezing » en dépit des décharges électriques qu'ils reçoivent. Le temps requis pour amener l'immobilisation correspond à une phase de dépression.

Regarding folate de lithium, the solubilité result in data set [1] is given as “solubles dans l'eau et les solvants hydroxylés”. Still for that read-out and setting: next, folinate de lithium [folinate lithié]: “solubles dans l'eau et les alcools”. In the case of `CNCCCN1c2ccccc2CCc2ccccc21` [DMI, desméthylimipramine], in the data set on rats rendus dépressifs [2], the “diminution du temps d'immobilisation” value is 50%. In addition, the “effet sur le temps d'immobilisation (freezing)” value in the data set with rats rendus dépressifs [3] is “supprime complètement ce temps d'immobilisation”.
